The values that follow come from patent US20190201489A1, “COMPOSITIONS AND METHODS FOR PREVENTING BONE LOSS AND/OR STIMULATING BONE HEALING” (NORTHEAST OHIO MEDICAL UNIVERSITY, priority 2016, published 2019).

In experiment [1] the test system is IL-6 mRNA. As to the kind of experiment: IL-6 mRNA expression in chondrocytes by TaqMan assay. Particulars: human chondrocytes stimulated with IL-1β, n=4. The experiment is classed as cell-based. Here is the method: (§1) Chondrocytes were derived by enzymatic digestion of human cartilage obtained from OA patients (n=14) undergoing knee joint replacement. Chondrocytes were stimulated with IL-1β (5 ng/ml) or treated with Actinomycin D (5 μg/ml) or NFκB inhibitor SC514 (75 μM) or JNK inhibitor (25 μM). Total RNA from grounded cartilage and from chondrocytes was purified using Qiagen RNeasy kit (Qiagen). Reverse transcription was performed using the Quantitect Reverse Transcription kit and the ZCCHC6 or IL-6 mRNA was quantified using TaqMan assays. SiRNA-mediated depletion of ZCCHC6 in human chondrocytes was used to study the effect on inflammatory cytokine expression using a cytokine array (Ray Biotech). Protein expression of IL-6 was studied using Western immunoblotting and quantified by ELISA in culture supernatants. Results were derived using Sigma Plot 12.3 package and p<0.05 was considered significant.

For experiment [2], the system named is ZCCHC6. As to the kind of experiment: ZCCHC6 expression in IL-1β-stimulated chondrocytes. In kind it is cell-based. As to conditions: human chondrocytes stimulated with IL-1β, n=4. The protocol:
as §1

As for Interleukin-1β [IL-1β], in experiment [1], the “increase in mRNA of IL-6” value is listed as 4956 fold. In experiment [2], the “increase in expression of ZCCHC6” value came out at 11.3 fold.
